In patent publication US11512069B2, “TLR7/8 antagonists and uses thereof” (Merck Patent GmbH, priority 2016, dated 2022) one finds IC50 data, which are given here for 14 molecules.

Structures are written as SMILES.

The target of this experiment is T1, TLR7 (Homo sapiens, UniProt Q9NYK1).
T1 construct: expressed in transfected cells; host or cells: HEK cells carrying TLR7 and an NF-kB reporter read with Steady-Glo
T1 sequence (Q9NYK1 27-1049): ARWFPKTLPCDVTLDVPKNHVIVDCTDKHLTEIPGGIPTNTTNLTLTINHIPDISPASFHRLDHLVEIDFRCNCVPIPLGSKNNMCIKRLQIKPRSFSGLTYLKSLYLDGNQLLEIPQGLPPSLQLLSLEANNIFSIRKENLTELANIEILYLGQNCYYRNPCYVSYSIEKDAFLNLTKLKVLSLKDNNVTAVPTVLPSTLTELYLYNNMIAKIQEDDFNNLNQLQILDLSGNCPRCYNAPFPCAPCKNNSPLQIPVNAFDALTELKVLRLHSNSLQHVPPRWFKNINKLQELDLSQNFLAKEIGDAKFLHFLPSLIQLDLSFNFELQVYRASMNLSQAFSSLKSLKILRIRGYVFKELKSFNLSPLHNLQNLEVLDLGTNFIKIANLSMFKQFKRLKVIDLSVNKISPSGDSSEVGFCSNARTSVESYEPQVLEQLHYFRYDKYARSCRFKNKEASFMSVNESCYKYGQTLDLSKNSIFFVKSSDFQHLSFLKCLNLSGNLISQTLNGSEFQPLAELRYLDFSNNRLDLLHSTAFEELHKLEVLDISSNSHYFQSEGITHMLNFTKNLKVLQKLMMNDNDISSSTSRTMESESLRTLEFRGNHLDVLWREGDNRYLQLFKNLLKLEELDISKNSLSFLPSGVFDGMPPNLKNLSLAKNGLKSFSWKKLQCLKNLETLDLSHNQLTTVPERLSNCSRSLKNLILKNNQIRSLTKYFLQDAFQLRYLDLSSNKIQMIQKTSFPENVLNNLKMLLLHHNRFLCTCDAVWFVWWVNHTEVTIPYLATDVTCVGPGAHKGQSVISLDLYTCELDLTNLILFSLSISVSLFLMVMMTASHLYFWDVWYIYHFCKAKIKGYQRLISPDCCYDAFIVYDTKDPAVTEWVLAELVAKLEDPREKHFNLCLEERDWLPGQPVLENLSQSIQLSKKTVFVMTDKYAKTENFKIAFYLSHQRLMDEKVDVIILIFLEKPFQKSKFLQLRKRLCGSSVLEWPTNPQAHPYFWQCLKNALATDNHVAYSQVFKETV
Nature of the experiment: HEK Cell Assay (TLR7/NFKb HEK reporter cells, Steady-Glo). Type of experiment: cell-based. The settings on record: compound 30 min, then R*48 agonist 5 hours, Steady-Glo readout, read-out: Potency. In outline: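 TLR7/NF-κB HEK reporter cells cultured 24 h, then pre-incubated 30 min with compound before adding R*48 agonist. Luciferase read by Steady-Glo luminescence after 5 h.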
In the case of `C[C@@H]1C[C@@H](c2ccc(OC(F)(F)F)c3ncccc23)CN(C(=O)CN2CCN(C)CC2)C1` [Compound 104, 2-(4-Methyl-piperazin-1-yl)-1-[(3R,5S)-3-methyl-5-(8-trifluoromethoxy-quinolin-5-yl)-piperidin-1-yl]-ethanone], the IC50 was greater than 20000 nM. For `C[C@@H]1C[C@H](c2ccc(OC(F)(F)F)c3ncccc23)CN(C(=O)CN2CCN(C)CC2)C1` [Compound 105, 2-(4-Methyl-piperazin-1-yl)-1-[(3R,5R)-3-methyl-5-(8-trifluoromethoxy-quinolin-5-yl)-piperidin-1-yl]-ethanone], the IC50 was in the range of 1000 to 20000 nM. Turning to `C[C@@H]1C[C@H](c2ccc(C#N)c3ncccc23)CN(Cc2cnn(C)c2)C1` [Compound 106, 5-[(3R,5R)-5-methyl-1-[(1-methylpyrazol-4-yl)methyl]-3-piperidyl]quinoline-8-carbonitrile], the IC50 was greater than 20000 nM. As for `CC1CC(c2ccc(C#N)c3ncccc23)CN(C(=O)NC2CCN(C)CC2)C1` (centres unmarked) [Compound 109, 3-(8-Cyano-quinolin-5-yl)-5-methyl-piperidine-1-carboxylic acid (1-methyl-piperidin-4-yl)-amide], the figure is less than 1000 nM; as for `CC1CC(c2ccc(C#N)c3ncccc23)CN(C(=O)NCC2CC(F)(F)C2)C1` (centres unmarked) [Compound 110, 3-(8-Cyano-quinolin-5-yl)-5-methyl-piperidine-1-carboxylic acid (3,3-difluoro-cyclobutylmethyl)-amide], 1000 to 20000 nM.

Take `C[C@@H]1C[C@H](c2ccc(OC(F)(F)F)c3ncccc23)CN(C(=O)NC2CCN(C)CC2)C1` [Compound 112, (3R,5R)-3-Methyl-5-(8-trifluoromethoxy-quinolin-5-yl)-piperidine-1-carboxylic acid (1-methyl-piperidin-4-yl)-amide]: the IC50 is less than 1000 nM. With `C[C@@H]1C[C@H](c2ccc(C#N)c3ncccc23)CN(C(=O)NC2CCN(C)CC2)C1` [Compound 113, (3R,5R)-3-(8-Cyano-quinolin-5-yl)-5-methyl-piperidine-1-carboxylic acid (1-methyl-piperidin-4-yl)-amid], the IC50 is less than 1000 nM. The value for `C[C@@H]1C[C@@H](c2cccc3ncccc23)CN(C(=O)NC2CCN(C)CC2)C1` [Compound 114, (3R,5S)-3-Methyl-5-quinolin-5-yl-piperidine-1-carboxylic acid (1-methyl-piperidin-4-yl)-amide] was 1000 to 20000 nM. As for `C[C@@H]1C[C@H](c2cccc3ncccc23)CN(C(=O)NC2CCN(C)CC2)C1` [Compound 115, (3R,5R)-3-Methyl-5-quinolin-5-yl-piperidine-1-carboxylic acid (1-methyl-piperidin-4-yl)-amide], the figure is 1000 to 20000 nM; as for `C[C@@H]1C[C@H](c2ccc(C#N)c3ncccc23)CN(C(=O)CN2CCC3(CC2)CNC3)C1` [Compound 117, 5-[(3R,5R)-1-(2-2,7-Diaza-spiro[3.5]non-7-yl-acetyl)-5-methyl-piperidin-3-yl]-quinoline-8-carbonitrile], 1000 to 20000 nM. In the case of `C[C@@H]1C[C@H](c2ccc(C#N)c3ncccc23)CN(C(N)=O)C1` [Compound 118, (3R,5R)-3-(8-Cyano-quinolin-5-yl)-5-methyl-piperidine-1-carboxylic acid amide], the IC50 lay within 1000 to 20000 nM. For the molecule `C[C@@H]1C[C@H](c2ccc(C#N)c3ncccc23)CN(C(=N)N)C1` [Compound 119, (3R,5R)-3-(8-Cyano-quinolin-5-yl)-5-methyl-piperidine-1-carboxamidine], the IC50 fell in the range of 1000 to 20000 nM. For the molecule `C[C@H]1C[C@@H](N)C[C@@H](c2ccc(C#N)c3nccnc23)C1` [Compound 121, 8-[(1S,3R,5R)-3-amino-5-methylcyclohexyl]quinoxaline-5-carbonitrile], the IC50 is less than 1000 nM. Turning to `C[C@@H]1C[C@H](N)C[C@H](c2ccc(C#N)c3nccnc23)C1` [Compound 122, 8-((1R,3S,5S)-3-amino-5-methylcyclohexyl)quinoxaline-5-carbonitrile], the IC50 fell in the range of 1000 to 20000 nM.
